{"source": "ChEMBL document CHEMBL1148263", "about": "“Solid-phase synthesis of kojic acid-tripeptides and their tyrosinase inhibitory activity, storage stability, and toxicity” (Bioorg Med Chem Lett, 2004)", "type_in_all_cases": "functional, Mus musculus", "key": {"[1]": {"assay": "Cytotoxicity of compound against Melan-a cells determined as percent cell survival at 10 ppm"}, "[2]": {"assay": "Cytotoxicity of compound against Melan-a cells determined as percent cell survival at 1 ppm"}, "[3]": {"assay": "Cytotoxicity of compound against Melan-a cells determined as percent cell survival at 100 ppm"}}}
{"smiles": "NCCCC[C@H](NC(=O)OCc1cc(=O)c(O)co1)C(=O)N[C@@H](CCC(=O)O)C(=O)N[C@@H](Cc1ccc(O)cc1)C(=O)O", "values": [{"measurement": "Cell survival", "setting": "[1]", "value": 98.78, "unit": "%"}, {"measurement": "Cell survival", "setting": "[2]", "value": 98.38, "unit": "%"}, {"measurement": "Cell survival", "setting": "[3]", "value": 100.81, "unit": "%"}]}
{"smiles": "O=C(N[C@@H](Cc1ccccc1)C(=O)N[C@@H](Cc1c[nH]c2ccccc12)C(=O)N[C@@H](Cc1ccc(O)cc1)C(=O)O)OCc1cc(=O)c(O)co1", "values": [{"measurement": "Cell survival", "setting": "[1]", "value": 128.73, "unit": "%"}, {"measurement": "Cell survival", "setting": "[2]", "value": 125.51, "unit": "%"}, {"measurement": "Cell survival", "setting": "[3]", "value": 128.08, "unit": "%"}]}
{"smiles": "O=C(N[C@@H](Cc1ccccc1)C(=O)N[C@@H](Cc1ccc(O)cc1)C(=O)N[C@@H](Cc1ccc(O)cc1)C(=O)O)OCc1cc(=O)c(O)co1", "values": [{"measurement": "Cell survival", "setting": "[1]", "value": 128.62, "unit": "%"}, {"measurement": "Cell survival", "setting": "[2]", "value": 124.4, "unit": "%"}, {"measurement": "Cell survival", "setting": "[3]", "value": 124.4, "unit": "%"}]}
{"smiles": "O=C(N[C@@H](Cc1ccccc1)C(=O)N[C@@H](Cc1ccccc1)C(=O)N[C@@H](Cc1ccc(O)cc1)C(=O)O)OCc1cc(=O)c(O)co1", "values": [{"measurement": "Cell survival", "setting": "[1]", "value": 94.66, "unit": "%"}, {"measurement": "Cell survival", "setting": "[2]", "value": 91.62, "unit": "%"}, {"measurement": "Cell survival", "setting": "[3]", "value": 104.36, "unit": "%"}]}
{"smiles": "O=c1cc(CO)occ1O", "note": "[KOJIC ACID]", "values": [{"measurement": "Cell survival", "setting": "[1]", "value": 92.36, "unit": "%"}, {"measurement": "Cell survival", "setting": "[2]", "value": 91.75, "unit": "%"}, {"measurement": "Cell survival", "setting": "[3]", "value": 86.92, "unit": "%"}]}
